Measurements published in PMC2866477, “Anticancer Effect and Structure-Activity Analysis of Marine Products Isolated from Metabolites of Mangrove Fungi in the South China Sea” (Marine Drugs, 2010).

What was measured:
pcDNA3.1(+) DNA = test: DNA binding assay (agarose gel electrophoresis); conditions: 10, 100 or 200 μmol/L with 1 μg pcDNA3.1(+), 37 °C, 3 h; 1% agarose gel
Description: 10, 100 or 200 μmol/L compounds were incubated with 1 μg pcDNA3.1(+) at 37 °C for 3 h. The mixtures were then subjected to electrophoresis on a 1% agarose gel, pre-stained with 0.5 μg/ml ethidium bromide, at 60 V for 40 min. Doxorubicin (DOX) was used as a positive control.

MCF-7/adr cells = test: MTT cytotoxicity assay, MCF-7/adr cells; type: cell-based; conditions: Homo sapiens, NCI/ADR-RES, 72 h treatment, doxorubicin-selected ABCB1-overexpressing MCF-7/adr cells
Description: (§1) The cell lines were cultured in DMEM or RPMI 1640 containing 10% fetal bovine serum at 37 °C in the presence of 5% CO2. The cell lines were the oral epidermoid carcinoma cell lines KB and its vincristine-selected ABCB1-overexpressing KBv200 [10]; the breast carcinoma cell lines MCF-7 and its doxorubicin-selected ABCB1-overexpressing MCF-7/adr; the lung carcinoma cell line A549 and normal liver cell line LO2.
(§2) The MTT assay was used to evaluate the cytotoxicity of a number of compounds previously isolated from mangrove-derived fungi as described. Briefly, 3–4 × 10^3 cells were incubated in 96-well plates and allowed to attach overnight before compounds at full range concentrations were added. The concentrations were chosen so that the highest concentration killed most of the cells and the lowest killed none of the cells. After 72 h treatment, 0.5 mg/ml MTT was added to each well for an additional 4 h. Subsequently, the supernatant was removed, and the purple MTT-formazan crystals were dissolved by DMSO. Finally, absorbance was recorded at 540 nm with 655 nm as a reference filter using a Model 550 Microplate Reader (Bio-Rad, USA). Experiments were performed at least three times. The standard chemotherapeutic agent doxorubicin was used as a positive control in MTT assay and normal liver cell line LO2 was used to show whether cytotoxic activity was tumor-specific. The concentrations required to inhibit growth by 50% (IC50) were calculated from survival curves using the Bliss method.

normal liver LO2 cells = test: MTT cytotoxicity assay, normal liver LO2 cells; type: cell-based; conditions: for IC50: Homo sapiens, L02, 72 h treatment, normal liver LO2 cells; for sensitivity of cancer cells compared with normal liver LO2 cells: cancer cells versus LO2 cells
Description: as §1, §2

KBv200 cells = test: MTT cytotoxicity assay, KBv200 cells; type: cell-based; conditions: Homo sapiens, 72 h treatment, vincristine-selected ABCB1-overexpressing KBv200 cells
Description: as §1, §2

A549 cells = test: MTT cytotoxicity assay, A549 cells; type: cell-based; conditions: Homo sapiens, 72 h treatment, A549 lung carcinoma cells
Description: as §1, §2

[1] = test system: KB, KBv200, MCF-7, MCF-7/adr, and A549 cells; test: MTT anticancer screen, cancer cell panel; type: cell-based, human; conditions: for IC50: Homo sapiens, MTT, KB, KBv200, MCF-7, MCF-7/adr, and A549 cells, read-out: IC50 values (potent cytotoxic activity)
Description: as §1, §2

KB cells = test: MTT cytotoxicity assay, KB cells; type: cell-based; conditions: Homo sapiens, 72 h treatment, KB oral epidermoid carcinoma cells
Description: as §1, §2

MCF-7 cells = test: MTT cytotoxicity assay, MCF-7 cells; type: cell-based; conditions: Homo sapiens, MCF7, 72 h treatment, MCF-7 breast carcinoma cells
Description: as §1, §2

Row | SMILES | DNA intercalation / binding to DNA (pcDNA3.1(+) DNA) | IC50 (MCF-7/adr cells) [µM] | IC50 (normal liver LO2 cells) [µM] | sensitivity of cancer cells compared with normal liver LO2 cells (normal liver LO2 cells) | IC50 (KBv200 cells) [µM] | IC50 (A549 cells) [µM] | IC50 [1] [µM] | IC50 (KB cells) [µM] | IC50 (MCF-7 cells) [µM] | cytotoxic / anticancer activity (in words) ([1]; MTT assay in vitro) | IC50 values in MDR cells compared with parental sensitive cells ([1]; KBv200, MCF-7/adr versus KB, MCF-7)
1 | O=C1c2cc(O)cc(O)c2C(=O)c2c1cc1c(c2O)C2CCCC(O1)O2 (stereo not drawn) [Compound 18] | none of the compounds investigated here showed binding to DNA | 25 ± 1.06 | > 50 | more sensitive | 44.6 ± 2.57 | 33.9 ± 2.31 | < 50 | 28.2 ± 1.66 | 17.2 ± 0.95 |  | 
2 | O=C1c2ccc(O)cc2OCC1c1ccc(O)cc1 (stereo not drawn) [Compound 78] | none of the compounds investigated here showed binding to DNA | 24.9 ± 1.15 | 33.6 ± 2.06 | more sensitive | 9.37 ± 0.61 | 14.9 ± 0.64 | < 50 | 8.63 ± 0.57 | 19.8 ± 0.89 | exhibited a cytotoxicity targeted to cancer cells | 
3 | COc1cccc2c1C(=O)c1c(O)c3c(c(O)c1C2=O)C[C@@](O)(C(=O)CO)C[C@@H]3O[C@H]1C[C@H](N)[C@H](O)[C@H](C)O1 [Doxorubicin, reference compound] | effectively intercalated into DNA in a concentration-dependent manner | 22.3 ± 1.56 | 0.11 ± 0.01 |  | 3.21 ± 0.12 | 1.67 ± 0.09 |  | 0.05 ± 0.003 | 0.39 ± 0.02 |  | much higher IC50 values
